# From the supplement of paper PMC10307832
# Experiments:
# Test in all cases: relative viability (nuclei count vs DMSO), 5 days (fraction); higher = more cells survive
# [1] = compound: CC1=CC(=CC=C1)NC2=NC(=CS2)C3=CC=NC=C3
# In short: (§1)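 After an overnight hold at 37 °C, lung cancer cell lines in 1536-well plates were pinned with five library-drug doses (not always all listed), each √10 from the next, on vehicle-anchored plates. The cells stayed 5 days without fresh medium, then a one-step fix, permeabilisation and Hoechst stain preceded 4× imaging and MetaXpress nuclear counts. A plate passed only with control CV under 25% and at least one doubling. Viability is the median, over plates, of treated-well nuclei relative to vehicle-well nuclei.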
# Masitinib = compound: Cc1ccc(NC(=O)c2ccc(CN3CCN(C)CC3)cc2)cc1Nc1nc(-c2cccnc2)cs1 [Masitinib]
# In short: as §1
# [2] = compound: CC1=CC(=CC=C1)NC2=NC(=CS2)C3=CC=NC=C3 + COc1cccc2cc(-c3nc([C@H]4CC[C@H](C(=O)O)CC4)n4ncnc(N)c34)[nH]c12 [OSI-027] (partner 0.5 µM)
# In short: (§2)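 After 5 days of treatment, lung cancer cells in 1536-well plates were fixed and stained in a single step (final 0.05% Triton X-100, 1% formaldehyde, 1 ug/ml Hoechst) and their nuclei counted on 4× images. Treatment had been applied by pin tool the day after seeding as one drug alone or as a fixed anchor-drug dose with five library-drug doses (not always all listed) in √10 steps. Relative viability is the nuclei count of treated wells divided by that of vehicle wells, and values are medians of duplicate plates.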
# Masitinib + Pemetrexed = compound: Cc1ccc(NC(=O)c2ccc(CN3CCN(C)CC3)cc2)cc1Nc1nc(-c2cccnc2)cs1 [Masitinib] + Nc1nc2[nH]cc(CCc3ccc(C(=O)N[C@@H](CCC(=O)O)C(=O)O)cc3)c2c(=O)[nH]1 [Pemetrexed] (partner 0.2 µM)
# In short: as §2
Cell Line,relative viability ([1]; 0.08 µM),relative viability ([1]; 0.253 µM),relative viability ([1]; 0.8 µM),relative viability ([1]; 2.53 µM),relative viability ([1]; 8 µM),relative viability (Masitinib; 0.01 µM),relative viability (Masitinib; 0.03162 µM),relative viability (Masitinib; 0.1 µM),relative viability (Masitinib; 0.3162 µM),relative viability (Masitinib; 1 µM),relative viability ([2]; first compound 0.08 µM),relative viability ([2]; first compound 0.253 µM),relative viability ([2]; first compound 0.8 µM),relative viability ([2]; first compound 2.53 µM),relative viability ([2]; first compound 8 µM),relative viability (Masitinib + Pemetrexed; first compound 0.01 µM),relative viability (Masitinib + Pemetrexed; first compound 0.03162 µM),relative viability (Masitinib + Pemetrexed; first compound 0.1 µM),relative viability (Masitinib + Pemetrexed; first compound 0.3162 µM),relative viability (Masitinib + Pemetrexed; first compound 1 µM)
NCI-H358,0.997,0.899,0.868,1.01,0.966,0.963,0.967,0.961,0.892,0.893,0.674,0.821,0.715,0.82,0.728,0.16,0.169,0.167,0.163,0.178
NCI-H441,0.957,1,1.01,0.922,0.866,1.01,0.956,1.09,1.25,1.07,0.492,0.499,0.605,0.61,0.672,0.261,0.273,0.244,0.261,0.256
NCI-H460,0.965,0.908,0.936,0.884,0.857,0.864,1.01,0.949,0.876,0.983,0.623,0.522,0.628,0.486,0.341,0.0557,0.0629,0.0594,0.0647,0.0579
NCI-H520,0.922,1.06,1.03,1.08,0.943,1.01,1.11,1.24,0.999,1.01,0.259,0.252,0.302,0.193,0.251,0.652,0.851,0.731,0.77,0.857
NCI-H522,0.894,0.886,0.931,0.925,1.15,1.06,0.815,0.866,1.07,0.974,0.71,0.649,0.737,0.735,0.775,1.13,0.935,0.95,0.841,0.997
NCI-H596,0.917,0.883,0.86,0.948,0.803,0.934,1.13,0.949,0.901,0.837,0.652,0.775,0.777,0.64,0.609,0.553,0.536,0.501,0.463,0.472
NCI-H647,0.816,0.87,0.797,0.869,0.76,0.926,0.959,1.07,0.983,0.873,0.531,0.471,0.659,0.585,0.644,0.166,0.178,0.174,0.185,0.164
NCI-H650,0.805,0.881,1.01,0.752,1.15,0.998,0.963,1.09,1.04,0.899,0.509,0.511,0.544,0.475,0.578,0.857,0.832,1.04,1.01,0.99
NCI-H661,0.907,0.944,0.913,0.914,0.99,0.9,0.977,0.986,0.967,0.947,0.621,0.653,0.687,0.7,0.578,0.9,0.913,0.946,0.939,0.895
NCI-H838,0.823,0.891,0.894,0.835,0.846,0.867,0.855,0.955,0.907,0.929,0.318,0.357,0.37,0.386,0.348,0.267,0.256,0.254,0.247,0.244
NCI-H1355,0.769,0.73,0.768,0.694,0.65,0.813,0.723,0.851,0.762,0.966,0.262,0.323,0.291,0.343,0.383,0.9,0.92,1.1,0.853,1.08
NCI-H1395,0.765,0.734,0.898,0.729,0.766,0.882,0.965,1.04,0.967,0.85,0.555,0.567,0.663,0.505,0.638,1.02,0.872,1.02,0.965,0.717
NCI-H1437,0.976,0.882,0.938,0.874,0.856,0.838,0.93,1.06,0.986,0.85,1.04,1.02,1.08,1.04,0.714,0.312,0.355,0.37,0.325,0.311
NCI-H1563,0.917,1.04,0.954,0.983,0.838,0.9,0.975,0.983,0.931,0.937,0.723,0.775,0.842,0.779,0.697,0.714,0.741,0.835,0.729,0.701
NCI-H1648,0.659,0.814,0.797,0.87,0.758,0.907,0.599,1.01,0.776,0.896,0.259,0.277,0.276,0.258,0.255,0.635,0.891,0.75,–,0.7
NCI-H1650,0.715,0.841,0.962,0.687,0.434,0.798,0.979,0.871,0.885,0.89,0.619,0.508,0.625,0.472,0.227,0.389,0.49,0.395,0.365,0.374

Cell Line,relative viability ([1]; 0.08 µM),relative viability ([1]; 0.253 µM),relative viability ([1]; 0.8 µM),relative viability ([1]; 2.53 µM),relative viability ([1]; 8 µM),relative viability (Masitinib; 0.01 µM),relative viability (Masitinib; 0.03162 µM),relative viability (Masitinib; 0.1 µM),relative viability (Masitinib; 0.3162 µM),relative viability (Masitinib; 1 µM),relative viability ([2]; first compound 0.08 µM),relative viability ([2]; first compound 0.253 µM),relative viability ([2]; first compound 0.8 µM),relative viability ([2]; first compound 2.53 µM),relative viability ([2]; first compound 8 µM),relative viability (Masitinib + Pemetrexed; first compound 0.01 µM),relative viability (Masitinib + Pemetrexed; first compound 0.03162 µM),relative viability (Masitinib + Pemetrexed; first compound 0.1 µM),relative viability (Masitinib + Pemetrexed; first compound 0.3162 µM),relative viability (Masitinib + Pemetrexed; first compound 1 µM)
NCI-H1651,0.95,0.918,1.03,0.87,0.963,0.899,0.97,0.954,0.988,0.971,0.71,0.649,0.77,0.75,0.737,0.565,0.62,0.527,0.632,0.588
NCI-H1666,0.866,0.83,0.818,0.705,0.688,0.779,0.944,0.939,0.846,0.961,0.582,0.598,0.676,0.501,0.507,0.943,0.842,0.885,0.708,0.77
NCI-H1734,0.864,0.952,1.03,0.988,0.96,0.957,1.08,1.06,0.976,0.942,0.481,0.554,0.654,0.7,0.618,0.408,0.465,0.396,0.376,0.404
NCI-H1755,0.926,0.942,0.866,0.857,0.697,–,0.935,0.886,1.02,0.935,0.485,0.7,0.58,0.653,0.588,0.357,0.411,0.427,0.446,0.463
NCI-H1792,0.746,0.698,0.793,0.653,0.753,0.76,0.76,1.04,0.814,0.735,0.541,–,0.613,0.443,0.401,0.846,0.525,0.93,0.548,0.707
NCI-H1793,0.75,0.801,0.898,0.816,0.841,0.886,0.804,0.878,0.978,0.795,0.238,0.25,0.315,0.249,0.217,0.992,0.737,1,0.835,0.742
NCI-H1915,0.937,0.961,0.962,0.938,0.89,–,0.999,–,1,0.977,0.598,0.61,0.602,0.575,0.587,–,0.507,–,0.467,0.496
NCI-H1944,0.871,0.912,0.958,0.765,0.809,–,0.972,–,0.799,0.955,0.374,0.36,0.384,0.329,0.39,–,0.618,–,0.572,0.566
NCI-H1975,0.798,0.762,0.843,0.714,0.549,0.983,0.923,1.06,0.676,0.852,0.699,0.653,0.628,0.483,0.267,0.305,0.3,0.287,0.291,0.303
NCI-H1993,0.67,0.788,0.768,0.792,0.876,0.91,0.867,0.986,0.826,0.917,0.523,0.524,0.586,0.576,0.56,0.622,0.58,0.582,0.483,0.502
NCI-H2009,0.877,0.944,0.98,0.945,0.893,0.806,0.991,0.922,0.994,0.981,0.589,0.668,0.676,0.625,0.586,1,1.01,1.1,1.09,1.01
NCI-H2023,0.898,0.94,0.926,0.876,0.633,0.952,1.01,0.984,0.922,0.901,0.337,0.269,0.376,0.228,0.207,0.228,0.201,0.207,0.244,0.215
NCI-H2085,0.99,1,0.968,0.94,0.826,0.891,0.983,1.01,1.05,0.958,0.7,0.614,0.598,0.613,0.522,0.976,0.936,1.01,0.992,0.844
NCI-H2087,0.951,0.895,1.01,0.877,0.93,0.961,1.22,1.07,1.18,1.01,0.499,0.543,0.554,0.673,0.639,0.642,0.666,0.66,0.555,0.703
NCI-H2126,0.881,0.864,0.893,0.824,0.863,0.908,0.996,0.978,0.847,0.931,0.608,0.582,0.674,0.631,0.651,0.633,0.713,0.672,0.665,0.738
NCI-H2170,0.901,1.01,0.945,0.942,0.824,0.843,0.933,0.983,1.04,0.991,0.733,0.646,0.583,0.537,0.651,0.238,0.264,0.263,0.284,0.263
